GI50 data for 20 compounds are collected here from patent EP4782450A1, “NOVEL SKELETAL DERIVATIVE EFFECTIVE FOR HER2 MUTATION, AND PHARMACEUTICAL COMPOSITION COMPRISING SAME” (Hanmi Pharm. Co., Ltd., priority 2023, dated 2025).

One test has as its system Ba/F3 HER2 A775insYVMA. The experiment in a line: Growth inhibition of Ba/F3 cells engineered to overexpress HER2 A775_G776insYVMA (CellTiter-Glo luminescence). Particulars: concentrations 1000 to 0.32 nM, read-out: Ba/F3 HER2^YVMA GI50 class. It is filed as cell-based. The method, then:
(§1) Experimental Example: Growth inhibition of Ba/F3 HER2 A775insYVMA and wild-type Ba/F3 cells
(§2) In this Experimental Example, the compounds obtained in Examples 1 to 92 were evaluated for their ability to inhibit growth of cells harboring either the HER2 A775insYVMA mutation or wild-type EGFR. For this purpose, Ba/F3 cells (ATCC, USA) were genetically engineered to overexpress either HER2 A775_G776insYVMA or wild-type EGFR, and the growth of these engineered Ba/F3 cells were monitored in the presence of the compounds described in the Examples to evaluate their effects on growth inhibition.
(§3) Specifically, culture flasks of the engineered Ba/F3 cells suspended in RPMI 1640 medium supplemented with 10% fetal bovine serum (FBS) and 1% penicillin/streptomycin (Gibco BRL, USA) were placed in a cell incubator and incubated at 37°C and 5% CO2 level to allow them to reach a stable logarithmic growth phase. The cells were then harvested by centrifugation to remove the old media and placed into a 96-well plate by dividing them into 100 µL aliquots per well at a dilution of 1×10^5 cells/mL in fresh media. Each of the compounds prepared in the preceding Examples were dissolved in 99.5% (cell culture grade) dimethylsulfoxide (DMSO) to prepare a stock solution of 10 mM concentration, which were serially diluted in the culture medium to final concentrations of 1000, 200, 40, 8, 1.6 and 0.32 nM for HER2 A775insYVMA Ba/F3 cells and concentrations of 10000, 5000, 1000, 200, 40 and 8 nM for wild-type EGFR overexpressing Ba/F3 cells.
(§4) To each aliquot of cells in the 96-well plate, a 50 µL test solution comprising one of the compounds was added to result in each well a 150 µL volume of cells with a compound in a final concentration ranging from 10 µM to 0.32 nM. The Ba/F3 cells treated with the test solution were incubated for 72 hours at 37°C and 5% CO2 level and underwent a 30-minute acclimation by placing the 96-well plate carrying the cells in ambient temperature. Thereafter, to each well was added 50 µL CellTiter-Glo® Luminescent Cell Assay Reagent (CTG, Promega, USA). After allowing 10 minutes to stabilize the signal, luminescence intensity was measured using a microplate reader. The half-maximal growth inhibition concentration (GI50) was calculated from the luminescence readout of the test compounds with the difference between the initial and final cell densities for the well untreated with a compound set at 100% growth. Nonlinear regression analysis based on log[inhibitor] vs. normalized response mode of the Graph Prism software was used for calculating GI50 for each compound, which are summarized in Table 6. The calculated GI50 values are classified in Table 6 into four categories: A for GI50 values less than 100 nM, B for GI50 values more than 100 nM but less than 1,000 nM, C for GI50 values more than 1,000 nM but less than 5,000 nM, and D for GI50 values of more than 5,000 nM.
On the technique in general: In ATP-based viability assays light output follows the ATP content of the culture.

Test [1] concerns wild-type EGFR overexpressing Ba/F3 cells. Briefly: Growth inhibition of Ba/F3 cells engineered to overexpress wild-type EGFR (CellTiter-Glo luminescence). It is filed as cell-based. As to conditions: concentrations 10000 to 8 nM, read-out: Ba/F3 EGFR^WT GI50 class. The method, then:
as §1, §2, §3, §4

Where two headings read alike, the source gives them in different places.

On to “(S)-1-(2-((4-((3-methyl-4-((1-methyl-1H-benzo[d]imidazol-5-yl)oxy)phenyl)amino)pyrido[3,2-d]pyrimidin-6-yl)ethynyl)pyrrolidin-1-yl)prop-2-en-1-one [Example 87]”, for which the GI50 in the test with Ba/F3 HER2 A775insYVMA (72 hours) was less than 0.1 µM; in test [1] (72 hours), 1 to 5 µM.

In the case of “N-(2-((8-((4-([1,2,4]triazolo[1,5-a]pyridin-7-yloxy)-3-methylphenyl)amino)pyrimido[5,4-d]pyrimidin-2-yl)oxy)ethyl)-N-methylacrylamide [Example 4]”, the GI50 (in the test on Ba/F3 HER2 A775insYVMA (72 hours); in test [1] (72 hours)) was 1 to 5 µM in each case.

`C=CC(=O)N1CCC[C@@H]1C#Cc1ccc2ncnc(Nc3ccc(Oc4ccc5c(c4)ncn5C)c(C)c3)c2c1` [Example 85, (R)-1-(2-((4-((3-methyl-4-((1-methyl-1H-benzo[d]imidazol-5-yl)oxy)phenyl)amino)quinazolin-6-yl)ethynyl)pyrrolidin-1-yl)prop-2-en-1-one]: the GI50 was less than 0.1 µM with Ba/F3 HER2 A775insYVMA (Mus musculus, BaF3, 72 hours) and 0.1 to 1 µM in test [1] (Mus musculus, BaF3, 72 hours).

On to `C=CC(=O)Nc1cccc(/C=C/c2ccc3ncnc(Nc4ccc(Oc5ccc6c(c5)ncn6C)c(C)c4)c3n2)c1` [Example 64, (E)-N-(3-(2-(4-((3-methyl-4-((1-methyl-1H-benzo[d]imidazol-5-yl)oxy)phenyl)amino)pyrido[3,2-d]pyrimidin-6-yl)vinyl)phenyl)acrylamide], for which the GI50 in the test on Ba/F3 HER2 A775insYVMA (Mus musculus, BaF3, 72 hours) is 0.1 to 1 µM; in test [1] (Mus musculus, BaF3, 72 hours), more than 5 µM.

Take `Cc1c(Oc2ccc3c(c2)ncn3C)ccc(Nc2ncnc3ccc(/C=C/CNC(=O)/C=C/CN(C)C)nc23)c1F` [Example 41, (E)-4-(dimethylamino)-N-((E)-3-(4-((2-fluoro-3-methyl-4-((1-methyl-1H-benzo[d]imidazol-5-yl)oxy)phenyl)amino)pyrido[3,2-d]pyrimidin-6-yl)allyl)but-2-enamide]: the GI50 in the test on Ba/F3 HER2 A775insYVMA (Mus musculus, BaF3, 72 hours) is less than 0.1 µM; in test [1] (Mus musculus, BaF3, 72 hours), 1 to 5 µM.

Turning to `C=CC(=O)N1CCC[C@@H]1C#Cc1ncc2ncnc(Nc3ccc(OC4=CC5N=CN(C)C5C=C4)c(C)c3)c2n1` (stereo partly drawn) [Example 90, 1-((2R)-2-((8-((3-methyl-4-((1-methyl-3a,7a-dihydro-1H-benzo[d]imidazol-5-yl)oxy)phenyl)amino)pyrimido[5,4-d]pyrimidin-2-yl)ethynyl)pyrrolidin-1-yl)prop-2-en-1-one], the GI50 in the test on Ba/F3 HER2 A775insYVMA (Mus musculus, BaF3, 72 hours) was less than 0.1 µM; in test [1] (Mus musculus, BaF3, 72 hours) it was less than 0.1 µM.

Turning to `C=CC(=O)N1CCCC[C@@H]1C#Cc1ncc2ncnc(Nc3ccc(Oc4ccc5c(c4)ncn5C)c(C)c3)c2n1` [Example 91, (R)-1-(2-((8-((3-methyl-4-((1-methyl-1H-benzo[d]imidazol-5-yl)oxy)phenyl)amino)pyrimido[5,4-d]pyrimidin-2-yl)ethynyl)piperidin-1-yl)prop-2-en-1-one], the GI50 was 0.1 to 1 µM in the test on Ba/F3 HER2 A775insYVMA (Mus musculus, BaF3, 72 hours) and 0.1 to 1 µM in test [1] (Mus musculus, BaF3, 72 hours).

Take `C=CC(=O)N1CC(/C=C/c2ccc3ncnc(Nc4cc(C)c(Oc5ccc6c(c5)ncn6C)cc4F)c3n2)C1` [Example 45]: the GI50 is less than 0.1 µM in the test with Ba/F3 HER2 A775insYVMA (Mus musculus, BaF3, 72 hours) and more than 5 µM in test [1] (Mus musculus, BaF3, 72 hours).

Consider `C=CC(=O)N(C)CC(=O)Nc1ccc2ncnc(Nc3ccc(Oc4ccc5c(c4)ncn5C)c(C)c3)c2n1` [Example 21, N-methyl-N-(2-((4-((3-methyl-4-((1-methyl-1H-benzo[d]imidazol-5-yl)oxy)phenyl)amino)pyrido[3,2-d]pyrimidin-6-yl)amino)-2-oxoethyl)acrylamide], for which the GI50 in the test on Ba/F3 HER2 A775insYVMA (Mus musculus, BaF3, 72 hours) is 0.1 to 1 µM; in test [1] (Mus musculus, BaF3, 72 hours), 1 to 5 µM.

In the case of `C=CC(=O)N(C)C/C=C/c1ccc2ncnc(Nc3ccc(Oc4ccc5c(c4)ncn5C)c(Cl)c3)c2n1` [Example 25, (E)-N-(3-(4-((3-chloro-4-((1-methyl-1H-benzo[d]imidazol-5-yl)oxy)phenyl)amino)pyrido[3,2-d]pyrimidin-6-yl)allyl)-N-methylacrylamide], the GI50 is less than 0.1 µM in the test on Ba/F3 HER2 A775insYVMA (Mus musculus, BaF3, 72 hours) and 1 to 5 µM in test [1] (Mus musculus, BaF3, 72 hours).

On to `C=CC(=O)N1CCC[C@@H]1C#Cc1ccc2ncnc(Nc3ccc(OC4=CC5N=CN(C)C5C=C4)c(C)c3)c2n1` (stereo partly drawn) [Example 86, 1-((2R)-2-((4-((3-methyl-4-((1-methyl-3a,7a-dihydro-1H-benzo[d]imidazol-5-yl)oxy)phenyl)amino)pyrido[3,2-d]pyrimidin-6-yl)ethynyl)pyrrolidin-1-yl)prop-2-en-1-one], for which the GI50 was less than 0.1 µM in the test on Ba/F3 HER2 A775insYVMA (Mus musculus, BaF3, 72 hours) and 1 to 5 µM in test [1] (Mus musculus, BaF3, 72 hours).

On to `C/C=C/C(=O)N(C)C/C=C/c1ccc2ncnc(Nc3ccc(Oc4ccc5c(c4)ncn5C)c(C)c3)c2n1` [Example 31, (E)-N-methyl-N-((E)-3-(4-((3-methyl-4-((1-methyl-1H-benzo[d]imidazol-5-yl)oxy)phenyl)amino)pyrido[3,2-d]pyrimidin-6-yl)allyl)but-2-enamide], for which the GI50 with Ba/F3 HER2 A775insYVMA (Mus musculus, BaF3, 72 hours) lay within 0.1 to 1 µM; in test [1] (Mus musculus, BaF3, 72 hours) it was 1 to 5 µM.

`C=CC(=O)N(C)C1(/C=C/c2ccc3ncnc(Nc4ccc(Oc5ccc6c(c5)ncn6C)c(C)c4)c3n2)CC1` [Example 30, (E)-N-methyl-N-(1-(2-(4-((3-methyl-4-((1-methyl-1H-benzo[d]imidazol-5-yl)oxy)phenyl)amino)pyrido[3,2-d]pyrimidin-6-yl)vinyl)cyclopropyl)acrylamide]: the GI50 with Ba/F3 HER2 A775insYVMA (Mus musculus, BaF3, 72 hours) lay in the range of 0.1 to 1 µM; in test [1] (Mus musculus, BaF3, 72 hours) it was 0.1 to 1 µM.

For `C=CC(=O)N1CC(/C=C/c2ccc3ncnc(Nc4ccc(Oc5cnc6c(c5)ncn6C)c(C)c4)c3n2)C1` [Example 44], the GI50 was less than 0.1 µM with Ba/F3 HER2 A775insYVMA (Mus musculus, BaF3, 72 hours) and more than 5 µM in test [1] (Mus musculus, BaF3, 72 hours).

Turning to `C=CC(=O)N1CCC[C@@H]1C#Cc1ccc2ncnc(Nc3ccc(Oc4ccn5ncnc5c4)c(C)c3)c2n1` [Example 80, (R)-1-(2-((4-((4-([1,2,4]triazolo[1,5-a]pyridin-7-yloxy)-3-methylphenyl)amino)pyrido[3,2-d]pyrimidin-6-yl)ethynyl)pyrrolidin-1-yl)prop-2-en-1-one], the GI50 in the test on Ba/F3 HER2 A775insYVMA (Mus musculus, BaF3, 72 hours) was less than 0.1 µM; in test [1] (Mus musculus, BaF3, 72 hours) it was 0.1 to 1 µM.

As to `C=CC(=O)N(C)CCCN(C)c1ccc2ncnc(Nc3ccc(Oc4ccc5c(c4)ncn5C)c(C)c3)c2n1` [Example 20, N-methyl-N-(3-(methyl(4-((3-methyl-4-((1-methyl-1H-benzo[d]imidazol-5-yl)oxy)phenyl)amino)pyrido[3,2-d]pyrimidin-6-yl)amino)propyl)acrylamide], the GI50 in the test with Ba/F3 HER2 A775insYVMA (Mus musculus, BaF3, 72 hours) is 0.1 to 1 µM; in test [1] (Mus musculus, BaF3, 72 hours), more than 5 µM.

For the compound `C=CC(=O)N1CCC[C@@H]1C#Cc1ccc2ncnc(Nc3ccc(Oc4ccn5ncnc5c4)c(C)c3)c2c1` [Example 74, (R)-1-(2-((4-((4-([1,2,4]triazolo[1,5-a]pyridin-7-yloxy)-3-methylphenyl)amino)quinazolin-6-yl)ethynyl)pyrrolidin-1-yl)prop-2-en-1-one], the GI50 in the test with Ba/F3 HER2 A775insYVMA (Mus musculus, BaF3, 72 hours) was less than 0.1 µM; in test [1] (Mus musculus, BaF3, 72 hours) it was less than 0.1 µM.

With `C=CC(=O)N(C/C=C/c1ccc2ncnc(Nc3ccc(Oc4ccc5c(c4)ncn5C)c(C)c3)c2n1)C(C)(C)C` [Example 53, (E)-N-(tert-butyl)-N-(3-(4-((3-methyl-4-((1-methyl-1H-benzo[d]imidazol-5-yl)oxy)phenyl)amino)pyrido[3,2-d]pyrimidin-6-yl)allyl)acrylamide], the GI50 is less than 0.1 µM with Ba/F3 HER2 A775insYVMA (Mus musculus, BaF3, 72 hours) and 1 to 5 µM in test [1] (Mus musculus, BaF3, 72 hours).

With `C=CC(=O)NC/C=C/c1ccc2ncnc(Nc3ccc(Oc4ccc5c(c4)ncn5C)c(C)c3F)c2n1` [Example 35, (E)-N-(3-(4-((2-fluoro-3-methyl-4-((1-methyl-1H-benzo[d]imidazol-5-yl)oxy)phenyl)amino)pyrido[3,2-d]pyrimidin-6-yl)allyl)acrylamide], the GI50 with Ba/F3 HER2 A775insYVMA (Mus musculus, BaF3, 72 hours) is less than 0.1 µM; in test [1] (Mus musculus, BaF3, 72 hours), more than 5 µM.

Take `C=CC(=O)NC/C=C/c1ccc2ncnc(Nc3ccc(Oc4ccn5nccc5c4)c(C)c3)c2n1` [Example 37, (E)-N-(3-(4-((3-methyl-4-(pyrazolo[1,5-a]pyridin-5-yloxy)phenyl)amino)pyrido[3,2-d]pyrimidin-6-yl)allyl)acrylamide]: the GI50 in the test on Ba/F3 HER2 A775insYVMA (Mus musculus, BaF3, 72 hours) was 0.1 to 1 µM; in test [1] (Mus musculus, BaF3, 72 hours), less than 0.1 µM.
